From patent US5863950A, “HIV protease inhibitors” (Agouron Pharmaceuticals, Inc., priority 1994, dated 1999)
pIC50, pKi: −log10 of the molar value. ≈ marks a conversion by molar mass, not a printed value. Where two headings read alike, the source gives them in different places.

Legend:
HIV-1 protease = target: T1, HIV-1 protease (Human immunodeficiency virus type 1 group M subtype B, UniProt P04585); experiment: biochemical; type: biochemical
T1 construct: purified HIV-1 protease
Description: 1. Proteolytic activity of purified HIV-1 protease was routinely measured using the chromogenic assay developed by Richards et al. (J. Biol. Chem. 265: 7733 (1990)). Synthetic peptide His-Lys-Ala-Arg-Val-Leu-Phe (pNO2)-Glu-Ala-Nle-Ser-NH2 (American Peptide Company) was used as the substrate.
2. The assay was carried out in 0.5M NaCl, 50 mM MES pH 5.6, 2% DMSO (dimethylsulfoxide) at 37° C. Cleavage of the scissile bond between leucine and paranitro-phenylalanine (Phe(pNO2)) was assayed by spectrophotometric monitoring of the decrease in absorbance at 305 nm. Initial velocity was determined as the rate of decline of absorbance during the first 100 seconds of reaction.
3. […] Between 15-25 concentrations of inhibitor were added and velocity of reaction was measured at each of the concentrations, as described above.
4. Inhibition constants were calculated using the method of Jackson et al. (Adv. in Enzyme Regulation 22: 187 (1984)).

HIV-1 (CEM cells) = experiment: Anti-HIV MTT assay, inhibition of HIV-induced cell killing, CEM cells; type: cell-based, HIV-1 isolates IIIB and/or RF; settings: Human immunodeficiency virus 1, CCRF-CEM, 144 h, CEM cell line (first position), 6 days, 37° C., read-out: Viral CEM
Excerpt: (§1) SRI has an established program for the primary antiviral analysis of compounds in microtiter assays which measure the ability of a selected compound to inhibit HIV-induced cell killing. This assay involves the conversion of the tetrazolium dye MTT to a colored formazan product by mitochondrial enzymes in metabolically active cells. This assay system is presently used at SRI to screen over 30,000 compounds per year. Briefly, the assay involves the infection of CEM or MT2 cells in round bottom 96-well plates. The compound of interest is added just prior to infection. Following 6 days of incubation at 37° C. the plates are stained with MTT. The results of the assay are quantitated spectrophotometrically on a Molecular Devices Vmax plate reader. The data is analyzed by linear regression utilizing an in-house software program to calculate antiviral activity. (IC25, IC50, IC95) and toxicity (TC25, TC50, TC95) as well as other values.
(§2) Primary antiviral assays are routinely performed in CEM or MT-2 cells.
(§3) Drugs will be solubilized in the appropriate vehicle such as distilled water or DMSO if necessary. Latex gloves, lab coats and masks are used during all phases of the handling process to prevent exposure to potentially harmful agents. The drug is prepared at the appropriate concentration and stored at -20° C. until used by the screening laboratory. The first dilution of each compound is made in a dilution tube with medium to yield a concentration two-fold that of the highest test concentration. Sterile titer tubes are then used to make serial one half-log dilutions of each compound. Following drug dilution, the diluted compound is added to the appropriate well of a 96-well microtiter plate. Up to 12 dilutions can be assayed conveniently in triplicate on a single plate with all appropriate controls including cell control, virus control, toxicity control, drug color control, medium control and plastic (background) control. When testing includes only six dilutions, two drugs can be assayed on a single microtiter plate. The drugs are added to the plate in a final volume of 100 microliters.
(§4) During the time the drug dilutions are prepared, cells are washed and counted. Viability is monitored by trypan blue dye exclusion and assays are not performed if the viability falls below 90%. Cells are maintained in an exponential growth phase and are split 1:2 on the day prior to assay to assure exponential growth rate.
(§5) For the primary screen, the cell lines utilized are CEM and MT-2. Unless otherwise indicated, the medium used is RPMI 1640 with 10% heat-inactivated fetal calf serum (FBS), glutamine and antibiotics.
(§6) Cells are propagated at 37° C. in an atmosphere of 5% CO2 in air. The virus employed for this work is HIV-1 isolates IIIB and/or RF, which are prepared by an acute infection process.
(§7) Briefly, virus-infected cells are pelleted on a daily basis beginning at three days post-infection until the virus has killed all of the cells in the culture. Reverse transcriptase activity and p24 ELISA are used to identify pools with the greatest amount of virus.
(§8) These 24-hour harvests are pooled, filtered and frozen at -90° C. Prior to use in the assay, the infectious pool of virus is titered on all available cell lines in order to determine the amount of virus required in the antiviral assay.
(§9) In general, pools produced by the acute infection method require the addition of one microliter of infectious virus per well resulting in the screening of drugs at a multiplicity of infection of 0.01. In this manner enough virus is prepared and frozen to complete over one thousand microtiter plates, allowing the testing of up to two thousand compounds from a single stock of infectious virus. The use of a single stock of virus for a long period of testing has very favorable effects on the repeatability of the assay systems.
(§10) Virus infection of the CEM and MT-2 cells for the antiviral assay is carried out in a bulk infection process. […]

HIV-1 (MT-2 cells) = experiment: Anti-HIV MTT assay, inhibition of HIV-induced cell killing, MT-2 cells; type: cell-based, HIV-1 isolates IIIB and/or RF; settings: Human immunodeficiency virus 1, MT2, 144 h; MT-2 cells (second position), 6 days, 37° C., MTT; read-out: Viral MT-2
Excerpt: as §1, §2, §3, §4, §5, §6, §7, §8, §9, §10

[1] = 0.5M NaCl, 50 mM MES pH 5.6, 2% DMSO, 37° C., 200 μM substrate

| SMILES | pIC50 (HIV-1 protease; [1]) | pKi (HIV-1 protease; [1]) | IC50 (HIV-1 (CEM cells)) [µg/mL] | IC50 (HIV-1 (MT-2 cells)) [µg/mL] | pIC50 (HIV-1 protease) | pKi (HIV-1 protease) |
| --- | --- | --- | --- | --- | --- | --- |
| CC(C)(C)N(CCO)C(=O)c1ccccc1CCC(O)Cc1ccccc1C(=O)N(CCO)C(C)(C)c1ccc2ccccc2c1 (stereo not drawn) [Example 66] | 6.60 | 6.84 | 4.53 (≈ 7.25 µM) | 12.7 (≈ 20.3 µM) |  |  |
| CCC1(N(CCO)C(=O)c2ccccc2CCC(O)Cc2ccccc2C(=O)N(CCC(O)CO)C(C)(C)c2ccccc2)CCCC1 (stereo not drawn) [Example 100] | 6.96 | 8.15 | 0.48 (≈ 0.729 µM) | 1.94 (≈ 2.94 µM) |  |  |
| CC(C)(C)N(CCO)C(=O)c1ccccc1CCC(O)Cc1ccccc1C(=O)N(CCO)C(C)(C)c1ccncc1 (stereo not drawn) [Example 77] | 5.91 | 6.00 | 7.57 (≈ 13.1 µM) | 16.4 (≈ 28.5 µM) |  |  |
| CCCC(CC)(CC)N(CCO)C(=O)c1ccccc1CC(O)CCc1ccccc1C(=O)N(CCO)C(C)(C)C (stereo not drawn) [Example 92] | 6.74 | 7.06 | 2.12 (≈ 3.73 µM) | 5.06 (≈ 8.9 µM) |  |  |
| Cc1ccc(CC(O)CCc2ccccc2C(=O)N(CCO)C(C)(C)C)c(C(=O)N(CCO)C(C)(C)c2ccccc2)c1 (stereo not drawn) [Example 74] | 6.74 | 7.68 | 3.69 (≈ 6.27 µM) | 5.54 (≈ 9.41 µM) |  |  |
| CC(C)(C)NC(=O)c1cc(Sc2ccccc2)ccc1CCC(O)Cc1ccccc1C(=O)N(CCO)C(C)(C)C (stereo not drawn) [Example 73] | 6.17 | 6.14 | > 10 | > 10 |  |  |
| CCc1ccc(CC(O)CCc2ccccc2C(=O)N(CCO)C(C)(C)c2ccccc2)c(C(=O)N(CCO)C(C)(C)c2ccccc2)c1 (stereo not drawn) [Example 89] | 6.84 | 7.77 | 1 (≈ 1.5 µM) | 1.79 (≈ 2.69 µM) |  |  |
| CCC1(N(CC(CO)CO)C(=O)c2ccccc2CCC(O)Cc2ccc(C)cc2C(=O)N(CC(CO)CO)C(C)(C)c2ccccc2)CCCC1 (stereo not drawn) [Example 107] | 7.04 | 7.49 | 1.44 (≈ 2.01 µM) | 1.34 (≈ 1.87 µM) |  |  |
| CCC1(N(CCO)C(=O)c2ccccc2CCC(O)Cc2ccc(C)cc2C(=O)N(CCO)C(C)(C)c2ccc(O)cc2)CCCC1 (stereo not drawn) [Example 96] |  |  | 0.57 (≈ 0.884 µM) | 1.18 (≈ 1.83 µM) | 7.20 | 8.40 |
| CCC1(N(CCOC(C)=O)C(=O)c2ccccc2CCC(O)Cc2ccc(C)cc2C(=O)N(CCOC(C)=O)C(C)(C)c2ccccc2)CCCC1 (stereo not drawn) [Example 110] | 7.17 | 8.27 | 0.69 (≈ 0.968 µM) | 1.72 (≈ 2.41 µM) |  |  |
| CCC1(N(CCO)C(=O)c2ccccc2CCC(O)Cc2ccc(C)cc2C(=O)N(CCC(O)CO)C(C)(C)c2ccccc2)CCCC1 (stereo not drawn) [Example 104] |  |  | 0.58 (≈ 0.862 µM) | 0.55 (≈ 0.817 µM) | 7.09 | 8.02 |
| CC(C)(C)N(CCO)C(=O)c1ccccc1CCC(O)Cc1ccccc1C(=O)N(CCO)C12CCCCC1CCC2 (stereo not drawn) [Example 81] | 6.64 | 7.19 | 4.39 (≈ 7.58 µM) | 5.58 (≈ 9.64 µM) |  |  |
| CCC1(N(CCO)C(=O)c2ccccc2CCC(O)Cc2ccc(C)cc2C(=O)N(CC(CO)CO)C(C)(C)c2ccccc2)CCCC1 (stereo not drawn) [Example 103] | 6.97 |  | 0.64 (≈ 0.951 µM) | 1.15 (≈ 1.71 µM) |  | 8.00 |
| CCC1(N(CCO)C(=O)c2ccccc2CCC(O)Cc2ccc(C)cc2C(=O)N(CCOC(=O)[C@@H](N)C(C)C)C(C)(C)c2ccccc2)CCCC1 (stereo partly drawn) [Example 114] | 6.40 | 6.64 | 2.11 (≈ 2.9 µM) | 1.75 (≈ 2.4 µM) |  |  |
| CC(C)(C)N(CCO)C(=O)c1ccccc1CCC(=O)C(F)(F)c1ccccc1C(=O)N(CCO)C(C)(C)c1ccccc1 [Example 78] | 6.38 | 6.49 | > 10 | 6.64 (≈ 10.9 µM) |  |  |
| CC(C)(C)N(CCO)C(=O)c1ccccc1CCC(O)Cc1ccccc1C(=O)N(CCOc1ccncc1)C(C)(C)c1ccccc1 (stereo not drawn) [Example 83] | 5.60 | 6.13 | > 100 | > 100 |  |  |
| CCC1(N(CCO)C(=O)c2ccccc2CCC(O)Cc2ccc(C)cc2C(=O)N(CCO)C(C)(C)c2ccccc2)CCCC1 (stereo not drawn) [Example 18] |  |  | 0.49 (≈ 0.779 µM) | 0.53 (≈ 0.843 µM) |  |  |
